Data as given in US5294725A, “Scopularin” (E. R. Squibb & Sons, Inc., priority 1989, dated 1994).
In brackets after ≈: the same amount, converted by molar mass.

What was measured:
lanosterol demethylase [1] = biological target: T1, lanosterol demethylase (Candida albicans, UniProt P10613); assay: Spectrophotometric carbon monoxide binding assay (Omura and Sato); conditions: Candida albicans SGY677, read-out: 50% inhibition of carbon monoxide binding
T1 construct: endogenous in cells; host or cells: Candida albicans SC5314
Description: (§1) The inhibition of lanosterol demethylase was determined by two methods: the spectrophotometric carbon monoxide binding assay of Omura and Sato (J. Biol. Chem. 239:2370-2378, 1964) and by a radiolabeled metabolic assay.
Cells of Candida albicans, SGY677, were grown overnight without shaking at 30° C. in a medium consisting of yeast extract 1% , peptone 2%, glucose 2% and distilled water. Cells were harvested by centrifugation and resuspended in 0.65M mannitol to an optical density at 600 nm of 2.5. At this density 1 ml of cells was equal to 6.7 mg constant dry weight (105° C. for 18 hours).

lanosterol demethylase [2] = biological target: T1, lanosterol demethylase; assay: Radiolabeled metabolic assay of lanosterol demethylase inhibition (14C-acetate, lanosterol accumulation); type: cell-based; conditions: Candida albicans SC5314, 1 hour, 30°, TLC autoradiography
Description: as §1
The ability of scopularin and its alcohol to inhibit the lanosterol demethylase of Candida albicans can also be visualized by a metabolic assay. Candida albicans SC5314, was grown overnight at 30° with shaking in the same medium as that used above. Cells were harvested by centrifugation and resuspended in water to give an optical density of 0.3 at 660 nm. 750 μl of this cell suspension, 300 μl of a medium containing 0.35 g Difco yeast nitrogen base without amino acids, 1 g glucose and distilled water to 10 ml, 100 μl of test material and distilled water were combined to give a final volume of 1.425 ml. This was incubated for 15 minutes at 30° C. with shaking, then 3 μCi ^14 C-acetate was added and continued to incubate for 1 hour. Cells were harvested by centrifugation and extracted with 2×0.5 ml methanol; centrifuged, decanted supernate and repeated the extraction with […] methanol-benzene (1:1). Centrifuged, decanted; combined supernates, dried and resuspended in 100 μl chloroform-methanol (1:1). The aliquots were spotted onto silica gel 60 (Merck) plates and developed chromatographically in a solvent containing dichloromethane-acetone (60:1). […]

Candida krusei = assay: Agar dilution MIC assay; type: cell-based; conditions: Pichia kudriavzevii, SC2967, 18 h
Description: (§2) The following methodology was used to determine the miniumum inhibitory concentration (hereinafter referred to as MIC) of scopularin.
(§3) The aerobic test organisms were grown in approximately 15-20 ml of Antibiotic Assay Broth (Difco) by inoculating (in tubes) the broth with a loopful of the organism from a BHI (Difco) agar slant. The inoculated tubes were incubated at 37° C. for 18 to 24 hours. These cultures are assumed to contain 10^7 colony forming units (CFU) per ml and the cultures were diluted 1:100 to give a final inoculum level of 10^5 CFU dilutions were made with Yeast Beef Broth (Difco).
(§4) Scopularin was dissolved in an appropriate diluent at a concentration of 1,000 μg/ml. Two-fold dilutions were made in Yeast Beef Broth (Difco), resulting in a range from 1000 μg/ml to 0.5 μg/ml. 1.5 ml of each dilution was placed into individual petri dishes to which 13.5 ml of K-10 agar was added. The composition of K-10 agar is:
(§5) The final drug concentration in the agar ranged from 100 μg/ml to 0.05 μg/ml. Organism growth control plates containing agar only were prepared and inoculated before and after the test plates. The organisms were applied to the agar surface of each plate with a Denyl Multipoint Inoculator (which delivers approximately 0.001 ml of each organism) resulting in a final inoculum of 10^4 CFU on the agar surface.
(§6) The plates were incubated at 37° C. for 18 hours and the MICs determined. The MIC is the lowest concentration of compound inhibiting growth of the organism.

Candida albicans = assay: Agar dilution MIC assay; type: cell-based
Description: as §2, §3, §4, §5, §6

T1 sequence (P10613 whole entry): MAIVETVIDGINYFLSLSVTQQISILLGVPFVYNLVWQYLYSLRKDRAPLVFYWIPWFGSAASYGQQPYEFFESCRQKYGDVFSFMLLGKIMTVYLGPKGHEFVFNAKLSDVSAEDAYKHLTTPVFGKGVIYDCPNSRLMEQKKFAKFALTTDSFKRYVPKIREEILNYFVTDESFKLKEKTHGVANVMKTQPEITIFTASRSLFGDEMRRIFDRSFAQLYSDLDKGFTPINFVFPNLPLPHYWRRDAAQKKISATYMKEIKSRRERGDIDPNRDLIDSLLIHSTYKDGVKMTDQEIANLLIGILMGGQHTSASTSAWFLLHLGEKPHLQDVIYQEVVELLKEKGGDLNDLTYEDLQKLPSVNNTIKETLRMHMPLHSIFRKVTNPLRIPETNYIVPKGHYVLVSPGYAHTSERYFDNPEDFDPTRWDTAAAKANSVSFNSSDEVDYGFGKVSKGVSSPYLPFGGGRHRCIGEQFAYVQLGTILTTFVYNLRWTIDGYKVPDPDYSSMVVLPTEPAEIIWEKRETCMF

Compound	IC50 (lanosterol demethylase [1]) [µM]	concentration causing accumulation of lanosterol, consistent with inhibition of lanosterol demethylase (lanosterol demethylase [2]) [µM]	MIC (Candida krusei) [µg/mL]	MIC (Candida albicans; SC12, 18 h) [µg/mL]	MIC (Candida albicans; SC14, 18 h) [µg/mL]
CCCC=CC=CC=C(C)[C@H]1OC[C@@H](C)[C@@H](OC)[C@@H]1O (relative stereo) [alcohol]	14	14			
CCC/C=C/C=C/C=C(\C)[C@H]1OC[C@@H](C)[C@@H](OC)[C@@H]1OC(=O)CN (relative stereo) [Scopularin, (2α, 3β, 4α, 5α)-Tetrahydro-4-methoxy-5-methyl-2-(1-methyl-1,3,5-nonatrienyl)-2H-pyran-3-ol, amino-acetate ester]		360	0.4 (≈ 1.19 µM)	100 (≈ 296 µM)	50 (≈ 148 µM)
